In patent publication US7968570B2, “Isoindolone compounds and their use as metabotropic glutamate receptor potentiators” (AstraZeneca AB, priority 2004, dated 2011) one finds EC50 data, which are given here for 15 molecules.

SMILES strings stand for the structures.

In general, EC50 refers to the concentration giving half of the maximal effect. High values mean a less potent agent, low ones a more potent agent.

T1 sequence (Q14416 19-872): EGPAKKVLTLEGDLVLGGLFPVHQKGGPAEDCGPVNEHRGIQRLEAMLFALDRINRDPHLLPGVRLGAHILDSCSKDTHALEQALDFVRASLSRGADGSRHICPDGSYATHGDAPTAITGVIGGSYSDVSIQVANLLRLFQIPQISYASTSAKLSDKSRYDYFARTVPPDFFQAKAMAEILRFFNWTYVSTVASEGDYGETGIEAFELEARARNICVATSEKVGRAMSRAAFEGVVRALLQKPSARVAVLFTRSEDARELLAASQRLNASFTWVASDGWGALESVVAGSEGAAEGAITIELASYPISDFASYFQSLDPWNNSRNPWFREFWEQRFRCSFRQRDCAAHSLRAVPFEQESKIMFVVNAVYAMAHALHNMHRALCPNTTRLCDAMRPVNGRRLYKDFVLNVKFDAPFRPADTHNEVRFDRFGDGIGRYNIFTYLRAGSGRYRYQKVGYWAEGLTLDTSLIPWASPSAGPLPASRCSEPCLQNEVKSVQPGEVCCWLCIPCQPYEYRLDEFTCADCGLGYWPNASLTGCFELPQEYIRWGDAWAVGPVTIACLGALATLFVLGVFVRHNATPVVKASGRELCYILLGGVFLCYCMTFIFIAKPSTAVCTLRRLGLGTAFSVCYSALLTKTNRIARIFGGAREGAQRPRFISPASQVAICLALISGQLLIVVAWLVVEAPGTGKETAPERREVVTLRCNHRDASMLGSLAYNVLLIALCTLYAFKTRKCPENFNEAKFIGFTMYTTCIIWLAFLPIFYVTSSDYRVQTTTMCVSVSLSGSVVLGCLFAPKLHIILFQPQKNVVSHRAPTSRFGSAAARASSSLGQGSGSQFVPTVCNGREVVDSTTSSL

One assay has as its target T1, human mGluR2 receptor (Homo sapiens, UniProt Q14416).
T1 construct: expressed in transfected cells
Briefly: [35S]-GTPγS binding assay of mGluR2 receptor activation. It is filed as biochemical.
Conditions: not given
On the procedure:
A [^35S]-GTPγS binding assay was used to functionally assay mGluR2 receptor activation. The allosteric activator activity of compounds at the human mGluR2 receptor were measured using a [^35S]-GTPγS binding assay with membranes prepared from CHO cells which stably express the human mGluR2. The assay is based upon the principle that agonists bind to G-protein coupled receptors to stimulate GDP-GTP exchange at the G-protein. Since [^35S]-GTPγS is a non-hydrolyzable GTP analog, it can be used to provide an index of GDP-GTP exchange and, thus, receptor activation. The GTPγS binding assay therefore provides a quantitative measure of receptor activation.
Membranes were prepared from CHO cells stably transfected with human mGluR2. Membranes (30 μg protein) were incubated with test compound (3 nM to 300 μM) for 15 minutes at room temperature prior to the addition of 1 μM glutamate, and incubated for 30 min at 30° C. in 500 μl assay buffer (20 mM HEPES, 100 mM NaCl, 10 mM MgCl2), containing 30 μM GDP and 0.1 nM [^35S]-GTPγS (1250 Ci/mmol). Reactions were carried out in triplicate in 2 ml polypropylene 96-well plates. Reactions were terminated by vacuum filtration using a Packard 96-well harvester and Unifilter-96, GF/B filter microplates. The filter plates were washed 4×1.5 ml with ice-cold wash buffer (10 mM sodium phosphate buffer, pH 7.4). The filter plates were dried and 35 μl of scintillation fluid (Microscint 20) was added to each well. The amount of radioactivity bound was determined by counting plates on the Packard TopCount. Data was analyzed using GraphPad Prism, and EC50 and Emax values (relative to the maximum glutamate effect) were calculated using non-linear regression.
(GTPγS resists hydrolysis and so accumulates on activated G proteins.)
Consider `O=C1c2c(Cl)cc(CC3CCN(Cc4ccncc4)CC3)cc2CN1Cc1ccc(OC(F)(F)F)cc1` [Example 182], for which the EC50 was determined as 40 nM.

As to `Cc1cc(CN2CCN(c3ccccn3)CC2)cc2c1C(=O)N(Cc1ccc(OC(F)(F)F)cc1)C2` [Example 167, 7-Methyl-5-(4-pyridin-2-yl-piperazin-1-ylmethyl)-2-(4-trifluorometh-oxy-benzyl)-2,3-dihydro-isoindol-1-one], a half-maximal response (EC50) required 140 nM.

The same assay, now with this note: membranes from CHO cells stably expressing human mGluR2; 1 μM glutamate.
With `Cc1cc(-c2ccncc2)cc2c1C(=O)N(Cc1ccc(Cl)cc1)C2` [Example 97, 2-(4-chlorobenzyl)-7-methyl-5-pyridin-4-yl-2,3-dihydroisoindol-1-one], a half-maximal response (EC50) required 300 nM.

In turn, `Cc1cc(N2CCN(Cc3cccnc3)CC2)cc2c1C(=O)N(Cc1ccc(OC(F)(F)F)cc1)C2` [Example 138, 7-Methyl-5-(4-pyridin-3-ylmethyl-piperazin-1-yl)-2-(4-trifluoromethoxy-benzyl)-2,3-dihydro-isoindol-1-one] had an EC50 of 360 nM.

Consider `COc1cc(N2CCC(N(C)C)C2)cc2c1C(=O)N(Cc1ccc(OC(F)(F)F)cc1)C2` (stereo not drawn) [Example 126, 5-(3- Dimethylaminopyrrolidin-1-yl)-7-methoxy-2-(4-trifluoromethoxy-benzyl)-2,3-dihydroisoindol-1-one], for which a half-maximal response (EC50) required 2520 nM.

With `CCN1CCN(c2cc3c(c(OC)c2)C(=O)N(Cc2ccc(OC(F)(F)F)cc2)C3)CC1` [Example 127, 5-(4-Ethylpiperazin-1-yl)-7-methoxy-2-(4-trifluoromethoxy-benzyl)-2,3-dihydroisoindol-1-one], the EC50 turned out to be 4680 nM.

With `O=C1c2c(Cl)cc(-c3ccncc3)cc2CN1Cc1ccc(Cl)cc1` [Example 106, 7-Chloro-2-(4-chloro-benzyl)-5-pyridin-4-yl-2,3-dihydro-isoindol-1-one], the EC50 was 130 nM.

`CCNCc1cc(C)c2c(c1)CN(Cc1ccc(OC(F)(F)F)cc1)C2=O` [Example 53, 5-Ethylamino-methyl-7-methyl-2-(4-trifluoromethoxy-benzyl)-2,3-dihydro-isoindol-1-one] had an EC50 of 6310 nM.

For `Cc1cc(C(=O)N2CCN(Cc3ccccc3)CC2)cc2c1C(=O)N(Cc1ccc(OC(F)(F)F)cc1)C2` [Example 161, 5-(4-Benzyl-piperazine-1-carbonyl)-7-methyl-2-(4-trifluoromethoxy-benzyl)-2,3-dihydro-isoindol-1-one], the midpoint of the response, the EC50, lay at 630 nM.

On to `Cc1cc(CN2CCC(n3c(=O)[nH]c4ccccc43)CC2)cc2c1C(=O)N(Cc1ccc(OC(F)(F)F)cc1)C2` [Example 56, 1-{1-[7-Methyl-1-oxo-2-(4-trifluoromethoxy-benzyl)-2,3-dihydro-1H-isoindol-5-ylmethyl]-piperidin-4-yl}-1,3-dihydro-benzoimidazol-2-one], for which it took 60 nM to reach a half-maximal effect (EC50).

`CN1CN(c2ccccc2)C2(CCN(c3ccc4c(c3)CN(Cc3ccc(OC(F)(F)F)cc3)C4=O)CC2)C1=O` [Example 151, 3-Methyl-8-[1-oxo-2-(4-trifluoromethoxy-benzyl)-2,3-dihydro-1H-isoindol-5-yl]-1-phenyl-1,3,8-triaza-spiro[4.5]decan-4-one] returned an EC50 of 480 nM.

`O=C1c2c(Cl)cc(N3CCN4CCCC4C3)cc2CN1Cc1ccc(OC(F)(F)F)cc1` (stereo not drawn) [Example 132, 7-Chloro-5-(hexahydro-pyrrolo[1,2-a]pyrazin-2-yl)-2-(4-trifluoromethoxy-benzyl)-2,3-dihydro-isoindol-1-one]: the response was half-maximal at 480 nM (EC50).

Molecule `Cc1cc(N2CCN3CCCCC3C2)cc2c1C(=O)N(Cc1ccc(Cl)cc1)C2` (stereo not drawn) [Example 121] showed an EC50 of 1230 nM.

In turn, `COc1cc(C2=CCNCC2)cc2c1C(=O)N(Cc1ccc(OC(F)(F)F)cc1)C2` [Example 92] yielded a half-maximal effective concentration (EC50) of 1360 nM.

`O=C(CN1CCN(c2cc(Cl)c3c(c2)CN(Cc2ccc(OC(F)(F)F)cc2)C3=O)CC1)N1CCCC1` [Example 156, 7-Chloro-5-[4-(2-oxo-2-pyrrolidin-1-yl-ethyl)-piperazin-1-yl]-2-(4-trifluoromethoxy-benzyl)-2,3-dihydro-isoindol-1-one]: a half-maximal effect (EC50) was put at 320 nM.
